Test results from US20240307334A1 (Lieber Institute, Inc., priority 2023, published 2024).
Where a name gives a salt, the structure may show the parent alone.

Assays:
[1] = test system: Tcf4+/tr mouse model of PTHS; assay: In vivo immunohistochemical (IHC) quantification of OPCs and OLs after two-week intraperitoneal dosing
Description: The Tcf4^+/tr mouse model of PTHS is heterozygous for an allele encoding deletion of the DNA-binding domain of TCF4 (B6; 129-TCF4tmlZhu/J, stock number 013598, Jackson Laboratory). This mouse colony was backcrossed for at least six generations, maintained by The Lieber Institute for Brain Developments Animal Facility on a 12-h light/dark cycle and fed ad libitum. Tcf4^+/tr mouse samples were matched with samples from Tcf4^+/+ littermates, and sex was randomly selected in each genotype and age group. All procedures were performed in accordance with the National Institutes of Health Guide for the Care and Use of Laboratory Animals and approved by the Johns Hopkins University School of Medicine's Institutional Animal Care and Use Committee.
(§1) The final pH was approximately 5.
(§2) Mice were dosed at 1.0 mg/kg/day for 14 days with either Sob-AM2 or NMP/Kolliphor solution (vehicle).
(§3) Cells were rinsed 1× with PBS and then fixed with 4% paraformaldehyde (PFA) for 5 minutes, following fixation cells were rinsed 3× with PBS. Similarly, mice were perfused with 20-30 mLs of 1× PBS, followed by 20-30 mLs of 4% PFA. Tissue was extracted and post fixed in 4% PFA on a rocker at 4° C. overnight. For immunostaining cells were rinsed 3× with 0.04% Tween 20 (Sigma 655204) while tissue (P42 mouse) was rinsed 3× with 0.4% Triton (Sigma X100). Cells were blocked in respective serum (10%) for 2 hours at room temperature on an orbital shaker. Following block, primary antibody was added in 2% serum in 0.04% Tween 20 for cells and 0.4% Triton-X 100 for tissue, and incubated overnight at 4° C. Following overnight incubation cells were rinsed 3× with 0.04% Tween 20 or 0.4% Triton respectively before adding the secondary antibody to incubate at room temperature for 2 hours. After incubation, cells were rinsed 3× in respective buffers and counterstained with DAPI (Invitrogen™, D1306). Visualization was carried out on a ZEISS LSM 700 Confocal. Imaging and quantification were performed blind to genotypes and conditions/treatments.
Next, we assessed the effectiveness of Sob-AM2 in vivo by dosing Tcf4^+/tr mice and Tcf4^+/+ littermates intraperitoneally with either Sob-AM2 (1 mg/kg) or vehicle for two weeks followed by immunohistochemical (IHC) quantification (FIG. 7D).

[2] = test system: Tcf4+/tr mouse model of PTHS; assay: Novel open field assay (locomotor activity and anxiety); format: in vivo; conditions: Tcf4+/tr mice
Method: as §1, §2
Locomotor activity and anxiety was assessed using Noldus PhenoTyper cages as previously shown. Mickelsen et al., 2019. Each cage is outfitted with two sets of cameras; one on the ceiling that faces the platform (35 cm×35 cm), and another pointed at the side of the cage. Mice were acclimated to the experimentation room in their home cages for at least 1 h. During acclimation, the Noldus EthoVision software was set-up to track movement for 30 total minutes. After acclimation, mice were placed in the center of the open field, opaque Plexiglas was placed on all four sides of the cage to obscure any visual cues, and the trial was started in the EthoVision software. After 30 min, the trial ended, and mice were placed back into their home cages. Noldus EthoVision software was used to determine distance traveled, time spent in center, and frequency of going to center.
Next we treated Tcf4^+/tr mice and Tcf4^+/+ littermates with Sob-AM2 for 14 days and then assayed their behavior in the open field (FIG. 8A).

[3] = following systemic administration, prodrug compared with sobetirome; cited from earlier work
[4] = test system: primary OPC/OL cultures from Tcf4+/tr and Tcf4+/+ mice; assay: Primary OPC and OL cultures: immunocytochemistry quantification of OPCs and OLs normalized to Olig2; format: cell-based, mouse; conditions: for OPCs (PDGFRα+/Olig2+) / mature OLs (MBP+/Olig2+): Tcf4+/tr cells
Method: Mice were dosed at 1.0 mg/kg/day for 14 days with either Sob-AM2 or NMP/Kolliphor solution (vehicle). Initial dosing was performed at P28 up until P42 when animals were then used for subsequent experiments.
Primary OPC and OLs were obtained following a previous protocol^19. In brief, P2-P3 pups were dissociated and plated at a density of 10.0×10^3 cells/cm^2 in a 96 well ibidi plate coated in 0.1% polyethyleneimine (PEI) and 0.5-μg/mL laminin. Cells were plated and maintained in OPC proliferation media consisting of 1× StemPro Neural supplement (Thermo Fisher Scientific, A1050801), 1× Anti-Anti (Thermo Fisher Scientific, 15240-096), 10 ng/mL of Human FGF-basic (Peprotech, 100-18B) and 30 ng/mL rhPDGF-AA (R&D systems, 221-AA), with a half media exchange on DIV4.
as §3
Mei et al., 2014; Yoshida et al., 2020. Following a previously established protocol, Yoshida et al., 2020, we dissociated and plated OPCs from both Tcf4^+/+ and Tcf4^+/tr mice onto 96-well plates in OPC proliferation media. […] We performed blinded quantification of OPCs and OLs using antibodies against PDGFRα and MBP, respectively, and normalized our counts with the pan-OL marker OLIG2 (FIG. 1B).
Hartley et al., 2019. We performed blinded quantification of OPCs and OLs using antibodies against PDGFRα and MBP, respectively, and normalized our counts with the pan-OL marker OLIG2 (FIG. 7A).

[5] = test system: Tcf4+/tr mouse model of PTHS; assay: Transmission electron microscopy (TEM) of myelination in the corpus callosum; format: in vivo
Method: 5% DMA (dimethylacetamide, Sigma 271012) was added up to the total volume needed. […] The mixture was shaken vigorously (vortex) and was ready for administration for intraperitoneal (1P) dosing at 10 mL/kg. The final pH was approximately 5. […] Initial dosing was performed at P28 up until P42 when animals were then used for subsequent experiments.
After perfusion with a 0.1 M sodium cacodylate buffer, pH 7.2, containing 2% paraformaldehyde (freshly prepared from EM grade aqueous solution), 2% glutaraldehyde, and 3 mM MgCl2, p42 mouse brains were kept overnight in fixative. The next day brains were dissected in fixative and rinsed with sodium cacodylate buffer. Samples were then post-fixed in reduced 2% osmium tetroxide, 1.6% potassium ferrocyanide in buffer (2 hr) on ice in the dark. Following a dH2O rinse, samples were stained with 2% aqueous uranyl acetate (0.22 μm filtered, 1 hr, dark), dehydrated in a graded series of ethanol, propylene oxide and embedded in Eponate 12 (Ted Pella) resin. Samples were polymerized at 60° C. overnight. Thin sections, 60 to 90 nm, were cut with a diamond knife on the Reichert-Jung Ultracut E ultramicrotome and picked up with copper slot (1×2 mm) grids. Grids were stained with 2% uranyl acetate and observed with a Phillips CM120 TEM at 80 kV. Images were captured with an AMT XR80 CCD camera. Preparation of samples, TEM imaging, and quantification was performed blind to genotypes.
Blinded to genotype and condition, TEM images were taken on the CC directly above the hippocampus from anatomically equivalent tissue sections in littermates. […] To further validate this, we quantified BCAS1+ cells (pre-myelinating OLs).

[6] = test system: multiple sclerosis; conditions: phase 2 clinical trial for multiple sclerosis; cited from earlier work
[7] = Tcf4+/tr mice, Sob-AM2 1 mg/kg intraperitoneally for two weeks
[8] = Sob-AM2 for 14 days, compared to vehicle-treated Tcf4+/tr littermates
[9] = clemastine (1 μM) DIV7 to DIV14, compared to vehicle treated Tcf4+/tr cells
[10] = Tcf4+/tr mice, clemastine 10 mg/kg intraperitoneally for two weeks (P28-P42)
[11] = clemastine for 14 days, 30 min open field
[12] = sobetirome (1 μM) 7 days to DIV14, compared to vehicle-treated Tcf4+/tr cells

## CNC(=O)COc1cc(C)c(Cc2ccc(O)c(C(C)C)c2)c(C)c1 [Sob-AM2]
[1]; [7]
  OPCs (PDGFRα+/Olig2+): significant decrease in OPCs
  mature OLs (CC1+/Olig2+): significant increase in mature OLs
[2]; [8]
  frequency of entering the center of the open field: reduction in the frequency of entering the center of the open field
  total distance traveled: significant reduction in total distance traveled
[3]
  crossing of the blood brain barrier and distribution to the central nervous system: better able to cross the blood brain barrier

## CN1CCC[C@@H]1CCO[C@](C)(c1ccccc1)c1ccc(Cl)cc1 [clemastine, clemastine fumarate]
[4]; [9]
  OPCs (PDGFRα+/Olig2+): significant reduction in OPCs
  mature OLs (MBP+/Olig2+): an increase in OLs
[4]; all conditions, in vitro assay
  total number of Olig2 positive cells, in vitro: no effect on the total number of Olig2 positive cells
[1]; Tcf4+/tr mice, 14 days clemastine
  number of BCAS1+ cells (pre-myelinating OLs): significantly increased the number of BCAS1+ cells
[1]; [10]
  OPCs (PDGFRα+/Olig2+): significant decrease in OPCs
  mature OLs (CC1+/Olig2+): significant increase in mature OLs
[1]; all conditions, in vivo assay
  total number of Olig2 positive cells, in vivo: no effect on the total number of Olig2 positive cells
[5]; Tcf4+/tr mice, clemastine vs vehicle-treated Tcf4+/tr mice
  density of uncompacted myelin: significantly increased the density of uncompacted myelin
[5]; Tcf4+/tr mice, relative to vehicle-treated Tcf4+/+ mice
  proportion of uncompacted myelin: normalized the proportion of uncompacted myelin
[5]; Tcf4+/tr mice, two week clemastine treatment
  total myelin density: unable to restore Tcf4^+/+ levels of total myelin density
[5]; clemastine Tcf4+/+ and clemastine Tcf4+/tr
  proportion of compact myelin per image: less compaction overall
[2]; [11]
  frequency of entering the center of the field: reduction in the frequency of entering the center of the field
  total distance traveled: significant reduction in total distance traveled
[6]
  remyelination in patients: showed remyelination capabilities

## Cc1cc(OCC(=O)O)cc(C)c1Cc1ccc(O)c(C(C)C)c1 [sobetirome]
[4]; [12]
  OPCs (PDGFRα+/Olig2+): significant reduction in OPCs
  mature OLs (MBP+/Olig2+): an increase in OLs
